Where a name gives a salt, the structure may show the parent alone.
Key:
RON (human) = RON (human) (Homo sapiens, UniProt Q04912); assay: RON kinase AlphaScreen assay (Km of ATP); type: biochemical; conditions: ATP at Km; at least duplicate experiments
Outline: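 AlphaScreen with PT66 donor/acceptor beads, read after 1 h, detected phosphorylation of biotinylated poly(Glu,Tyr) by human RON. Enzyme-started reactions ran 30 min at room temperature with ATP at Km. Buffer was HEPES pH 7.4 with MgCl2, glycerol, vanadate and 1% DMSO.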

MET (human) = MET (human) (Homo sapiens, UniProt P08581); assay: MET kinase AlphaScreen assay (Km of ATP); type: biochemical; conditions: ATP at Km; at least duplicate experiments
Outline: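 AlphaScreen detection with PT66 beads (1 h) follows a 60 min room-temperature MET reaction. Substrate is 200 ng/μL biotinylated poly(Glu,Tyr), with ATP set at an enzyme-optimized concentration. Buffer is HEPES pH 7.4 with MgCl2, MnCl2 and 0.334 mM vanadate, compounds at 1% DMSO.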

MET (human), sequence (P08581 25-1390): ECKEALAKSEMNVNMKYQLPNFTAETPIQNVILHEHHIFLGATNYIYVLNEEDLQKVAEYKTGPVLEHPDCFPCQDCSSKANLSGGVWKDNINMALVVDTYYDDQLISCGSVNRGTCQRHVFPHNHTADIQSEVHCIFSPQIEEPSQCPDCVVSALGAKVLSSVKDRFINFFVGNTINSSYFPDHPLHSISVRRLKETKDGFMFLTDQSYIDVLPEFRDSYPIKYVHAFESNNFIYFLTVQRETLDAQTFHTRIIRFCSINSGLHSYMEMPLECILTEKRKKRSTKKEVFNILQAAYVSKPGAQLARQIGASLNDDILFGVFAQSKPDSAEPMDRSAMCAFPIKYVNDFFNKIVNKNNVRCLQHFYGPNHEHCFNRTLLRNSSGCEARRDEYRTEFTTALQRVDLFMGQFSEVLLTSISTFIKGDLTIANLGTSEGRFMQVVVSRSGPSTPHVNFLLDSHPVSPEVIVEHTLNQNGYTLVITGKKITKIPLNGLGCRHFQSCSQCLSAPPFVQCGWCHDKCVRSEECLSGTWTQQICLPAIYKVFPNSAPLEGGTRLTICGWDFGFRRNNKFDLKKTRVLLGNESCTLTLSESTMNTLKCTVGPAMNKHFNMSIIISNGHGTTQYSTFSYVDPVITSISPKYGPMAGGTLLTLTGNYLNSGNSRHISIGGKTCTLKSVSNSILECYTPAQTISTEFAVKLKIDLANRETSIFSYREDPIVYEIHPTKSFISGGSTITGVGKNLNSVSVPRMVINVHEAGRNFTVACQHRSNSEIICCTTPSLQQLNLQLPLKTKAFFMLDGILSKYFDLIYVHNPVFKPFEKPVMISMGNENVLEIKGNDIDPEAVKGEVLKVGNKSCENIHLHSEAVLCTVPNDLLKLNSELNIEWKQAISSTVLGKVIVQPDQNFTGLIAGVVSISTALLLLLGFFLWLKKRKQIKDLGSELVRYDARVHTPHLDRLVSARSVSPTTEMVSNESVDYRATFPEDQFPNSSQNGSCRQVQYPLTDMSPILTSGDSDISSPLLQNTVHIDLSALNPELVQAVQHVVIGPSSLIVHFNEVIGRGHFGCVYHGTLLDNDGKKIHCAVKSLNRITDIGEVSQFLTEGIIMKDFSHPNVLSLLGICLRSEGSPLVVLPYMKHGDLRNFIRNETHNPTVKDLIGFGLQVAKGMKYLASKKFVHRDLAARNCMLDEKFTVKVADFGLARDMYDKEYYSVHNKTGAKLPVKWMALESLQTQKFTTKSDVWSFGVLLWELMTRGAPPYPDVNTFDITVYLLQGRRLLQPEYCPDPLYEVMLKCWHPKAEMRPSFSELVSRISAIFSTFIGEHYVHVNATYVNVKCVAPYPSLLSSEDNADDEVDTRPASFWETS
RON (human), sequence (Q04912 25-1400): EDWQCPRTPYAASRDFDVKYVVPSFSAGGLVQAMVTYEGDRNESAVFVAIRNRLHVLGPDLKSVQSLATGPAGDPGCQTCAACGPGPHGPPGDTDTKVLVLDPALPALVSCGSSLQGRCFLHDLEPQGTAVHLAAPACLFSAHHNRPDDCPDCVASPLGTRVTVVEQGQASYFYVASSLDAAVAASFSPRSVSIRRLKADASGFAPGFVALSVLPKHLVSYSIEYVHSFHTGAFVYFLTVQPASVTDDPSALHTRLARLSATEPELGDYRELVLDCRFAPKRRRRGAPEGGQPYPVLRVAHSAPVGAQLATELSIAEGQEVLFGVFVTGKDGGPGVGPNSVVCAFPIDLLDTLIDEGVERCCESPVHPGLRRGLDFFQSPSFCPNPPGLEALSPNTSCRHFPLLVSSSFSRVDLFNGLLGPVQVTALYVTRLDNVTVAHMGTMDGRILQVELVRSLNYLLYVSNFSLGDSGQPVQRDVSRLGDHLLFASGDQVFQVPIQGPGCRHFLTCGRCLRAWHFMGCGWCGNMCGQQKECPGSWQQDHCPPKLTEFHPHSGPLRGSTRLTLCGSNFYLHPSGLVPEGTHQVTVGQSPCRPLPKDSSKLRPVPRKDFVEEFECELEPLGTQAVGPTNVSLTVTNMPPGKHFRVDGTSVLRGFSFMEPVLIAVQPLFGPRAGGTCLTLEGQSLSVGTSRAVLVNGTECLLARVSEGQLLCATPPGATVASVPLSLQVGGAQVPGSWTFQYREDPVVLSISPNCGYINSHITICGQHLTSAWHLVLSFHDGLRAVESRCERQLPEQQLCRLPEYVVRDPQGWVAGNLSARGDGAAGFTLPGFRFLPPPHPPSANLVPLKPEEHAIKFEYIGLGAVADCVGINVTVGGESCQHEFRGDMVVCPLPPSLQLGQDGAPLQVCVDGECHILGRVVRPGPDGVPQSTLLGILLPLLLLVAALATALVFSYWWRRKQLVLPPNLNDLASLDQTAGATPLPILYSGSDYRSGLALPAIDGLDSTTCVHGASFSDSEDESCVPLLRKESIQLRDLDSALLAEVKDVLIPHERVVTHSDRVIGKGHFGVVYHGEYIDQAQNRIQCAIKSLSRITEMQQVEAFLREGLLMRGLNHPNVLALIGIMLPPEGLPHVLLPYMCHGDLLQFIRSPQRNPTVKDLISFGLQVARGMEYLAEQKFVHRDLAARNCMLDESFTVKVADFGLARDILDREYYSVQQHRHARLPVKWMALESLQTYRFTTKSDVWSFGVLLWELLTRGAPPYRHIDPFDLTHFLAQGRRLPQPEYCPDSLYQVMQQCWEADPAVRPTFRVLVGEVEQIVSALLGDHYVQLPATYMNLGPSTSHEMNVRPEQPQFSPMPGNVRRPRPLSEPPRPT

| Structure (SMILES) | IC50 (RON (human)) [nM] | IC50 (MET (human)) [nM] |
| --- | --- | --- |
| CC(C)n1cc(-c2cnc(N)c(-c3cc4ccccc4o3)c2)cn1 [Example 102, 3-Benzofuran-2-yl-5-(1-isopropyl-1H-pyrazol-4-yl)-pyridin-2-ylamine bis-hydrochloride] | 1000 to 20000 | 100 to 1000 |
| CN(C)C(=O)N1CCC(n2cc(-c3cnc(N)c(-c4cc5ccccc5o4)c3)cn2)CC1 [Example 103, 4-[4-(6-Amino-5-benzofuran-2-yl-pyridin-3-yl)-pyrazol-1-yl]-piperidine-1-carboxylic acid dimethylamide bis-hydrochloride] | 1000 to 20000 | 100 to 1000 |
| Nc1ncc(-c2cnn(C3CCNCC3)c2)cc1-c1cc2ccccc2s1 [Example 104, 3-Benzo[b]thiophen-2-yl-5-(1-piperidin-4-yl-1H-pyrazol-4-yl)-pyridin-2-ylamine bishydrochloride] | 100 to 1000 | ≤ 100 |
| Cc1c(-c2cc(-c3cnn(C4CCNCC4)c3)cnc2N)sc2ccccc12 [Example 105, 3-(3-Methylbenzo[b]thiophen-2-yl)-5-(1-piperidin-4-yl-1H-pyrazol-4-yl)pyridin-2-ylamine bishydrochloride] | 1000 to 20000 | 1000 to 20000 |
| Nc1ncc(-c2cnn(C3CCNCC3)c2)cc1-c1nc2ccccc2o1 [Example 106, 3-Benzoxazol-2-yl-5-(1-piperidin-4-yl-1H-pyrazol-4-yl)-pyridin-2-ylamine dihydrochloride] | 100 to 1000 | ≤ 100 |
| Nc1ncc(-c2cnn(C3CCNCC3)c2)cc1-c1nc2ccccc2s1 [Example 107, 3-Benzothiazol-2-yl-5-(1-piperidin-4-yl-1H-pyrazol-4-yl)-pyridin-2-ylamine dihydrochloride] | ≤ 100 | ≤ 100 |
| CN1C2CCC1CC(n1cc(-c3cnc(N)c(-c4nc5ccccc5s4)c3)cn1)C2 (stereo not shown) [Example 108, 3-Benzothiazol-2-yl-5-[1-(8-methyl-8-azabicyclo [3.2.1]oct-3-yl)-1H-pyrazol-4-yl]-pyridin-2-ylamine trihydrochloride] | ≤ 100 | ≤ 100 |
| CN1C2CCC1CC(n1cc(-c3cnc(N)c(-c4nc5ccccc5s4)c3)cn1)C2 (stereo not shown) [Example 109, 3-Benzothiazol-2-yl-5-[1-(8-methyl-8-azabicyclo[3.2.1]oct-3-yl)-1H-pyrazol-4-yl]-pyridin-2-ylamine] | ≤ 100 | ≤ 100 |
| Nc1ncc(-c2cnn(C3CC4CCC(C3)N4)c2)cc1-c1nc2ccccc2s1 (stereo not shown) [Example 110, 5-[1-(8-Azabicyclo[3.2.1]oct-3-yl)-1H-pyrazol-4-yl]-3-benzothiazol-2-ylpyridin-2-ylamine] | 100 to 1000 | 100 to 1000 |
| Nc1ncc(-c2cnn(C3CCOCC3)c2)cc1-c1nc2ccccc2s1 [Example 111, 3-Benzothiazol-2-yl-5-[1-(tetrahydropyran-4-yl)-1H-pyrazol-4-yl]-pyridin-2-ylamine] | 100 to 1000 | 100 to 1000 |
| Nc1ncc(-c2cn[nH]c2)cc1-c1nc2ccccc2s1 [Example 112, 3-Benzothiazol-2-yl-5-(1H-pyrazol-4-yl)-pyridin-2-ylamine] | 1000 to 20000 | 1000 to 20000 |
| Nc1ncc(-c2cnn(C3CCCCC3)c2)cc1-c1nc2ccccc2s1 [Example 113, 3-Benzothiazol-2-yl-5-(1-cyclohexyl-1H-pyrazol-4-yl)-pyridin-2-ylamine bis-hydrochloride] | 1000 to 20000 | 100 to 1000 |
| COCCN1CCC(n2cc(-c3cnc(N)c(-c4nc5ccccc5s4)c3)cn2)CC1 [Example 114, 3-Benzothiazol-2-yl-5-1-[1-(2-methoxyethyl)-piperidin-4-yl]-1H-pyrazol-4-yl-pyridin-2-ylamine] | 100 to 1000 | 100 to 1000 |
| Nc1ncc(-c2cnn(C3CCN(CC(F)(F)F)CC3)c2)cc1-c1nc2ccccc2s1 [Example 115, 3-Benzothiazol-2-yl-5-1-[1-(2,2,2-trifluoroethyl)-piperidin-4-yl]-1H-pyrazol-4-yl-pyridin-2-ylamine dihydrochloride] | 1000 to 20000 | 1000 to 20000 |
| NC(=O)N1CCC(n2cc(-c3cnc(N)c(-c4nc5ccccc5s4)c3)cn2)CC1 [Example 116, 4-[4-(6-Amino-5-benzothiazol-2-yl-pyridin-3-yl)-pyrazol-1-yl]-piperidine-1-carboxamide bis-hydrochloride] | 100 to 1000 | 100 to 1000 |
| CN(C)C(=O)N1CCC(n2cc(-c3cnc(N)c(-c4nc5ccccc5s4)c3)cn2)CC1 [Example 117, 4-[4-(6-Amino-5-benzothiazol-2-yl-pyridin-3-yl)-pyrazol-1-yl]-piperidine-1-carboxylic acid dimethylamide bis-hydrochloride] | 100 to 1000 | 100 to 1000 |
| CC(C)n1cc(-c2cnc(N)c(-c3nc4ccccc4s3)c2)cn1 [Example 118, 3-Benzothiazol-2-yl-5-(1-isopropyl-1H-pyrazol-4-yl)-pyridin-2-ylamine bis-hydrochloride] | 100 to 1000 | 100 to 1000 |
| Cn1cc(-c2cnc(N)c(-c3nc4ccccc4s3)c2)cn1 [Example 119, 3-Benzothiazol-2-yl-5-(1-methyl-1H-pyrazol-4-yl)-pyridin-2-ylamine bis-hydrochloride] | 1000 to 20000 | 1000 to 20000 |
| Nc1ncc(-c2cnc(N3CCOCC3)s2)cc1-c1nc2ccccc2s1 [Example 120, 3-Benzothiazol-2-yl-5-(2-morpholin-4-ylthiazol-5-yl)-pyridin-2-ylamine] | 1000 to 20000 | 1000 to 20000 |
| CN1CCN(c2ncc(-c3cnc(N)c(-c4nc5ccccc5s4)c3)s2)CC1 [Example 121, 3-Benzothiazol-2-yl-5-[2-(4-methylpiperazin-1-yl)-thiazol-5-yl]-pyridin-2-ylamine dihydrochloride] | 100 to 1000 | 100 to 1000 |
| Nc1ncc(-c2cnc(N3CCNCC3)s2)cc1-c1nc2ccccc2s1 [Example 122, 3-Benzothiazol-2-yl-5-(2-piperazin-1-ylthiazol-5-yl)-pyridin-2-ylamine dihydrochloride] | 100 to 1000 | 100 to 1000 |
| Nc1ncc(-c2cnn(C3CCC(=O)CC3)c2)cc1-c1nc2ccccc2s1 [Example 123, 4-[4-(6-Amino-5-benzothiazol-2-ylpyridin-3-yl)-pyrazol-1-yl]-cyclohexanone] | 100 to 1000 | 100 to 1000 |
| Nc1ncc(-c2cnn(C3CCC4(CC3)OCCO4)c2)cc1-c1nc2ccccc2s1 [Example 124, 3-Benzothiazol-2-yl-5-[1-(1,4-dioxaspiro[4.5]dec-8-yl)-1H-pyrazol-4-yl]-pyridin-2-ylamine] | 1000 to 20000 | > 20000 |
| CC(C)(C)OC(=O)NCC#Cc1cnc(N)c(-c2nc3ccccc3s2)c1 [Example 125, [3-(6-Amino-5-benzothiazol-2-ylpyridin-3-yl)-prop-2-ynyl]-carbamic acid tert-butyl ester] | > 20000 | 1000 to 20000 |
| NCC#Cc1cnc(N)c(-c2nc3ccccc3s2)c1 [Example 126, 5-(3-Aminoprop-1-ynyl)-3-benzothiazol-2-ylpyridin-2-ylamine] | > 20000 | 1000 to 20000 |
| CN(C)C(=O)NCC#Cc1cnc(N)c(-c2nc3ccccc3s2)c1 [Example 127, 3-[3-(6-Amino-5-benzothiazol-2-ylpyridin-3-yl)-prop-2-ynyl]-1,1-dimethylurea] | 1000 to 20000 | 1000 to 20000 |
